Holding throughout (type): biochemical
In assay [1] the target is MAGL (Mus musculus (Mouse), UniProt O35678). The experiment in a line: In vitro competitive activity-based protein profiling, mouse proteomes (brain membrane fraction or cell lysates). To be noted: mouse proteome, read-out: MAGL % inh. 1 μM (mouse). How it is done:
(§1) In Vitro Competitive Activity-Based Protein Profiling.
(§2) Proteomes (mouse brain membrane fraction or cell lysates for mouse assays; human prefrontal cortex or PC3 cell membrane fractions for human assays) (50 μL, 1.0 or 2.0 mg/mL total protein concentration) were preincubated with varying concentrations of inhibitors at 37° C. After 30 min, FP-Rh or JW912 or HT-01 (1.0 μL, 50 μM in DMSO) was added and the mixture was incubated for another 30 min at 37° C. Reactions were quenched with SDS loading buffer (15 μL-4×) and run on SDS-PAGE. Following gel imaging, serine hydrolase activity was determined by measuring fluorescent intensity of gel bands corresponding to MAGL and FAAH using ImageJ 1.43u software.

For assay [2], the target named is FAAH (Mus musculus (Mouse), UniProt O08914). The description is as above. The settings on record: mouse proteome, read-out: FAAH % inh. 1 μM (mouse). How it is done:
as §1, §2

Assay [3] addresses MAGL (Homo sapiens (Human), UniProt Q99685). The experiment in a line: In vitro competitive activity-based protein profiling, human proteomes (prefrontal cortex or PC3 cell membrane fractions). The settings on record: human proteome; for inhibition at 1 µM: read-out: MAGL % inh. 1 μM (human). As to the method:
as §1, §2

Structures are written as SMILES.

Sequence of FAAH (O08914 whole entry): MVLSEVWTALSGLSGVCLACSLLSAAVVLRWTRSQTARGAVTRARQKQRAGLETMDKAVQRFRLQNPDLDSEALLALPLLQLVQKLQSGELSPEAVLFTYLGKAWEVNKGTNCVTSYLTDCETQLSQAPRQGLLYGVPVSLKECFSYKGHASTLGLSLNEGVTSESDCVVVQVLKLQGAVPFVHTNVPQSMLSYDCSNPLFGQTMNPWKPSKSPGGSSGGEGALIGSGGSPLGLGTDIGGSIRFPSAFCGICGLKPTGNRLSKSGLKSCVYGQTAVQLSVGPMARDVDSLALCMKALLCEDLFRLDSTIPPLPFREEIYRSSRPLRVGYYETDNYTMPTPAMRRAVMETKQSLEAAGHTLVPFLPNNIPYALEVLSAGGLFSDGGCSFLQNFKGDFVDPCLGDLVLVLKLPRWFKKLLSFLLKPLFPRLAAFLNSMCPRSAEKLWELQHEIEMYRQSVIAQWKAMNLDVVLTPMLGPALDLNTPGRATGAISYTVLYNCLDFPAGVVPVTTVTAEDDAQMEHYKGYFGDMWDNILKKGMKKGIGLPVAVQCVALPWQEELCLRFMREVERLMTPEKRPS
Sequence of MAGL (Mus musculus (Mouse), UniProt O35678) (O35678 whole entry): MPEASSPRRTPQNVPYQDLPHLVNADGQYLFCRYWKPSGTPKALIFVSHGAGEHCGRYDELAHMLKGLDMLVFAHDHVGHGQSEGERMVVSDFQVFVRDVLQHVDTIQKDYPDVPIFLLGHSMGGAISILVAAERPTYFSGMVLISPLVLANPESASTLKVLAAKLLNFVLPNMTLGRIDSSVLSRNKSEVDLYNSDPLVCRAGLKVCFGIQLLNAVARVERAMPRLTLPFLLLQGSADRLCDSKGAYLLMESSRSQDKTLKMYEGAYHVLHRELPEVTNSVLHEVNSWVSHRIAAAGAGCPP
Sequence of MAGL (Homo sapiens (Human), UniProt Q99685) (Q99685 whole entry): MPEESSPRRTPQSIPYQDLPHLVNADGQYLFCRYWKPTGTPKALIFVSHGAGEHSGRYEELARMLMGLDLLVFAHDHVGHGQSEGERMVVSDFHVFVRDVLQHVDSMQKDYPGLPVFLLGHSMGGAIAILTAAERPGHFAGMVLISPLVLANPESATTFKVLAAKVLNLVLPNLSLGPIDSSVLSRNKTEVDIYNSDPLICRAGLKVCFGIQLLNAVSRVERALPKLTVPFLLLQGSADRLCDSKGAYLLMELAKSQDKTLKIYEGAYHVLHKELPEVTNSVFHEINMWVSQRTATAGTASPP

Take `CC(=O)Nc1ccn(C(=O)N2C[C@H]3C[C@H](N(C)Cc4ccccc4Cl)C[C@H]3C2)n1` [Example 36, N-(1-((3aR,5s,6aS)-5-((2-Chlorobenzyl)(methyl)amino)octahydrocyclopenta[c]pyrrole-2-carbonyl)-1H-pyrazol-3-yl)acetamide]: the inhibition at 1 µM in assay [1] and in assay [2] was more than 75% each time.
`CC(=O)Nc1ccn(C(=O)N2C[C@H]3C[C@@H](N(C)Cc4ccccc4Cl)C[C@H]3C2)n1` [Example 37, N-(1-((3aR,5r,6aS)-5-((2-Chlorobenzyl)(methyl)amino)octahydrocyclopenta[c]pyrrole-2-carbonyl)-1H-pyrazol-3-yl)acetamide]: the inhibition at 1 µM in assay [1] and in assay [2] was more than 75% each time.
On to `CS(=O)(=O)Nc1ccn(C(=O)N2CC3CN(Cc4cccc(Oc5ccc(Cl)cc5)c4)CC3C2)n1` (stereo not shown) [Example 41, N-(1-(5-(3-(4-Chlorophenoxy)benzyl)octahydropyrrolo[3,4-c]pyrrole-2-carbonyl)-1H-pyrazol-3-yl)methanesulfonamide], for which the inhibition at 1 µM is 0 to 25% in assay [1] and more than 75% in assay [2].
As for `CC(=O)Nc1ccn(C(=O)N2CC3CN(Cc4ccc(Oc5ccc(Cl)cc5)cc4)CC3C2)n1` (stereo not shown) [Example 44, N-(1-(5-(4-(4-Chlorophenoxy)benzyl)octahydropyrrolo[3,4-c]pyrrole-2-carbonyl)-1H-pyrazol-3-yl)acetamide], the inhibition at 1 µM in assay [1] and in assay [2] was more than 75% each time.
Broadly, the IC50 is the concentration that gives 50% inhibition. Take `CS(=O)(=O)Nc1ccn(C(=O)N2CCN(Cc3ccc(C(F)(F)F)c(N4CC5COCC5C4)c3)CC2)n1` (stereo not shown) [Example 181, N-(1-(4-(3-(Tetrahydro-1H-furo[3,4-c]pyrrol-5(3H)-yl)-4-(trifluoromethyl)benzyl)piperazine-1-carbonyl)-1H-pyrazol-3-yl)methanesulfonamide]: the inhibition at 1 µM in assay [1] was more than 75%. Also, in assay [3], the inhibition at 1 µM was more than 75% and the IC50 is less than 0.1 µM.
As for `CN(Cc1ccc(Cl)c(N2CCCC2)c1)C1(C)CCN(C(=O)n2ccc(NS(C)(=O)=O)n2)CC1` [Example 183, N-(1-(4-((4-Chloro-3-(pyrrolidin-1-yl)benzyl)(methyl)amino)-4-methylpiperidine-1-carbonyl)-1H-pyrazol-3-yl)methanesulfonamide], the inhibition at 1 µM in assay [1] and in assay [3] was more than 75% in each case.
With `CN(Cc1cc(Cl)ccc1C(F)(F)F)CC1CCN(C(=O)n2ccc(NS(C)(=O)=O)n2)CC1` [Example 184, N-(1-(4-(((5-Chloro-2-(trifluoromethyl)benzyl)(methyl)amino)methyl)piperidine-1-carbonyl)-1H-pyrazol-3-yl)methanesulfonamide], in assay [1], the inhibition at 1 µM is more than 75%. Also, in assay [3], the inhibition at 1 µM is more than 75% and the half-inhibitory concentration (IC50) was less than 0.1 µM.
On to `C[C@H]1CN(C(=O)n2ccc(NS(C)(=O)=O)n2)CCN1Cc1ccc(C(F)(F)F)c(N2CCC(F)CC2)c1` [Example 187, (S)-N-(1-(4-(3-(4-Fluoropiperidin-1-yl)-4-(trifluoromethyl)benzyl)-3-methylpiperazine-1-carbonyl)-1H-pyrazol-3-yl)methanesulfonamide], for which the inhibition at 1 µM in assay [1] and in assay [3] was more than 75% in each case. This compound also yielded an IC50 in assay [3] of less than 0.1 µM.
Regarding `CC(=O)Nc1ccn(C(=O)N2CC3CN(Cc4cc(C(F)(F)F)cc(C5(C(=O)O)CCCC5)c4)CC3C2)n1` (stereo not shown) [Example 191, 1-(3-((5-(3-Acetamido-1H-pyrazole-1-carbonyl)hexahydropyrrolo[3,4-c]pyrrol-2(1H)-yl)methyl)-5-(trifluoromethyl)phenyl)cyclopentane-1-carboxylic acid], the inhibition at 1 µM in assay [1] and in assay [3] was more than 75% throughout.
As for `C[C@H]1CN(C(=O)n2ccc(NS(C)(=O)=O)n2)CCN1Cc1ccc(C(F)(F)F)c(N2CC[C@H](F)C2)c1` [Example 192, N-(1-((S)-4-(3-((S)-3-Fluoropyrrolidin-1-yl)-4-(trifluoromethyl)benzyl)-3-methylpiperazine-1-carbonyl)-1H-pyrazol-3-yl)methanesulfonamide], the inhibition at 1 µM in assay [1] and in assay [3] was more than 75% in each case.
Turning to `CC(=O)Nc1ccn(C(=O)N2CCC(N(C)Cc3cc(C(F)(F)F)cc(C4(C(=O)O)CCCC4)c3)CC2)n1` [Example 193, 1-(3-(((1-(3-Acetamido-1H-pyrazole-1-carbonyl)piperidin-4-yl)(methyl)amino)methyl)-5-(trifluoromethyl)phenyl)cyclopentane-1-carboxylic acid], the inhibition at 1 µM in assay [1] and in assay [3] was more than 75% each time.
As to `C[C@H]1C[C@@H](N(C)Cc2ccc(Cl)c(N3CC4COCC4C3)c2)CCN1C(=O)n1ccc(NS(C)(=O)=O)n1` (stereo partly drawn) [Example 194, N-(1-((2S,4S)-4-((4-chloro-3-(Tetrahydro-1H-furo[3,4-c]pyrrol-5(3H)-yl)benzyl)(methyl)amino)-2-methylpiperidine-1-carbonyl)-1H-pyrazol-3-yl)methanesulfonamide], in assay [1], the inhibition at 1 µM lay within 0 to 25%. Further, the inhibition at 10 µM in assay [3] (10 μM, read-out: MAGL % inh. (human) @ 10 μM) was 50 to 75%.
Regarding `CS(=O)(=O)Nc1ccn(C(=O)N2CCC3(CCCN3Cc3ccc(Cl)c(N4CCCC4)c3)CC2)n1` [Example 195, N-(1-(1-(4-Chloro-3-(pyrrolidin-1-yl)benzyl)-1,8-diazaspiro[4.5]decane-8-carbonyl)-1H-pyrazol-3-yl)methanesulfonamide], the inhibition at 1 µM in assay [1] and in assay [3] was more than 75% in each case.
`CN(Cc1ccc(Cl)cc1N1CCC(F)CC1)C1(C)CCN(C(=O)n2ccc(NS(C)(=O)=O)n2)CC1` [Example 196, N-(1-(4-((4-Chloro-2-(4-fluoropiperidin-1-yl)benzyl)(methyl)amino)-4-methylpiperidine-1-carbonyl)-1H-pyrazol-3-yl)methanesulfonamide]: the inhibition at 1 µM in assay [1] and in assay [3] was more than 75% each time.
In the case of `CN(Cc1ccc(Cl)cc1N1CCOCC1)C1(C)CCN(C(=O)n2ccc(NS(C)(=O)=O)n2)CC1` [Example 198, N-(1-(4-((4-Chloro-2-morpholinobenzyl)(methyl)amino)-4-methylpiperidine-1-carbonyl)-1H-pyrazol-3-yl)methanesulfonamide], the inhibition at 1 µM was 50 to 75% in assay [1] and more than 75% in assay [3].
For `C[C@@H]1CCCN1c1cc(CN2CCN(C(=O)n3ccc(NS(C)(=O)=O)n3)C[C@@H]2C)ccc1Cl` [Example 199, N-(1-((S)-4-(4-Chloro-3-((R)-2-methylpyrrolidin-1-yl)benzyl)-3-methylpiperazine-1-carbonyl)-1H-pyrazol-3-yl)methanesulfonamide] the same measures were more than 75% and more than 75%.
The matching figures for `C[C@@H]1CN(C(=O)n2ccc(NS(C)(=O)=O)n2)CCN1Cc1ccc(Cl)c(N2CCC[C@H]2C)c1` [Example 200, N-(1-((R)-4-(4-Chloro-3-((R)-2-methylpyrrolidin-1-yl)benzyl)-3-methylpiperazine-1-carbonyl)-1H-pyrazol-3-yl)methanesulfonamide]: more than 75% and more than 75%.
In the case of `C[C@@H]1CN(C(=O)n2ccc(NS(C)(=O)=O)n2)CCN1Cc1ccc(Cl)c(N2CCC(F)(F)CC2)c1` [Example 201, (R)-N-(1-(4-(4-Chloro-3-(4,4-difluoropiperidin-1-yl)benzyl)-3-methylpiperazine-1-carbonyl)-1H-pyrazol-3-yl)methanesulfonamide], the inhibition at 1 µM in assay [1] and in assay [3] was more than 75% in each case.
For the compound `C[C@@H]1CN(C(=O)n2ccc(NS(C)(=O)=O)n2)CCN1Cc1ccc(Cl)c(N2CCC(C(F)(F)F)CC2)c1` [Example 202, (R)-N-(1-(4-(4-Chloro-3-(4-(trifluoromethyl)piperidin-1-yl)benzyl)-3-methylpiperazine-1-carbonyl)-1H-pyrazol-3-yl)methanesulfonamide], the inhibition at 1 µM in assay [1] and in assay [3] was more than 75% each time.
In the case of `CS(=O)(=O)Nc1ccn(C(=O)N2CCC(OCc3ccc(Cl)c(N4CCC(F)CC4)c3)CC2)n1` [Example 209, N-(1-(4-((4-Chloro-3-(4-fluoropiperidin-1-yl)benzyl)oxy)piperidine-1-carbonyl)-1H-pyrazol-3-yl)methanesulfonamide], the inhibition at 1 µM in assay [1] and in assay [3] was more than 75% in each case.
Consider `CS(=O)(=O)Nc1ccn(C(=O)N2CC[C@H](Oc3ccc(C(F)(F)F)c(N4CCC(F)CC4)c3)[C@@H](F)C2)n1` [Example 210, N-(1-((3S,4S)-3-Fluoro-4-(3-(4-fluoropiperidin-1-yl)-4-(trifluoromethyl)phenoxy)piperidine-1-carbonyl)-1H-pyrazol-3-yl)methanesulfonamide], for which the inhibition at 1 µM in assay [1] and in assay [3] was more than 75% in each case.
For the compound `C[C@H]1CN(C(=O)n2ccc(NS(C)(=O)=O)n2)CCN1Cc1cc(N2CCC(F)CC2)c(Cl)cn1` [Example 223, (S)-N-(1-(4-((5-Chloro-4-(4-fluoro-piperidin-1-yl)pyridin-2-yl)methyl)-3-methyl-piperazine-1-carbonyl)-1H-pyrazol-3-yl)methane-sulfonamide], the inhibition at 1 µM in assay [1] and in assay [3] was more than 75% in each case.
As to `C[C@@H]1CN(C(=O)n2ccc(NS(C)(=O)=O)n2)CCN1Cc1ccc(Cl)c(N2CCCC2)c1` [Example 224, (R)-N-(1-(4-(4-Chloro-3-(pyrrolidin-1-yl)benzyl)-3-methyl-piperazine-1-carbonyl)-1H-pyrazol-3-yl)methane-sulfonamide], the inhibition at 1 µM in assay [1] and in assay [3] was more than 75% in each case.
